From patent US20240279278A1, “NMU RECEPTOR 2 AGONISTS” (Boehringer Ingelheim International GmbH, priority 2023, published 2024)
Starred links: 1 amine or outer side, 2 acyl side, 3 side chain; linkers in the order of their positions; H or OH if unused. Non-standard residues stand in square brackets, D forms with d. Residues, ends and D or L forms follow the SMILES beside them. *: point of attachment. Pipz(1-CH2CO,4-CH2CH2NH) = O=C(CN1CCN(CCN[*:1])CC1)[*:2]; C18 diacid = O=C(O)CCCCCCCCCCCCCCCCC(=O)*; γGlu = O=C(O)[C@H](CCC(=O)[*:2])N[*:1]; 4Pal = N[C@@H](Cc1ccncc1)C(=O)O; NMeL = CN[C@@H](CC(C)C)C(=O)O; Nle = CCCC[C@H](N)C(=O)O; Sar = CNCC(=O)O

Assays:
Type in all cases: cell-based
human NMUR1 receptor = target: T1, human NMUR1 receptor (Homo sapiens, UniProt Q9HB89); test: IP1 Gq HTRF assay, activation of human NMUR1 in buffer; conditions: CHO-K1 cells expressing human NMUR1, stimulation buffer with 0.1% BSA; read-out: EC50 (hNMUR1) buffer
T1 construct: expressed in transfected cells; host or cells: CHO-K1
T1 sequence (Q9HB89 1-426): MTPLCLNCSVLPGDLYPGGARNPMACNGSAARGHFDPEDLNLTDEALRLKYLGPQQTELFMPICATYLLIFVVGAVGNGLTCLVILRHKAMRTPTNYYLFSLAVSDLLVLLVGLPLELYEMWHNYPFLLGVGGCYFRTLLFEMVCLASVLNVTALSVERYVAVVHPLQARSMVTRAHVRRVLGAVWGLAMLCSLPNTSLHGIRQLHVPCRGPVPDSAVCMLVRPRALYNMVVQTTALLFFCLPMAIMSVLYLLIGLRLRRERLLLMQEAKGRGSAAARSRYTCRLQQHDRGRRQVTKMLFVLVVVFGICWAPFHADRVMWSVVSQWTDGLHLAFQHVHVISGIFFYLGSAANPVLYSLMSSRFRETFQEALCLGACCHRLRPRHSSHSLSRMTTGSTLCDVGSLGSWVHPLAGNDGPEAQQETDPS
Procedure, shortened: (§1)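 CHO-K1 cells stably expressing human NMUR1 or NMUR2, seeded 24 h before assay, stimulated with peptide agonists (8-point dose-response, 1% DMSO final) in HEPES/HBSS buffer with 50 mM LiCl and 0.1% BSA, pH 7.4, 1 h at 37 °C. IP1 accumulation read by HTRF competition (665/620 nm); EC50 from 4-parameter sigmoidal fit.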

human NMUR2 receptor [1] = target: T2, human NMUR2 receptor (Homo sapiens, UniProt Q9GZQ4); test: IP1 Gq HTRF assay, activation of human NMUR2 in human plasma; parameters: expressed in transfected cells; host or cells: CHO-K1; conditions: CHO-K1 cells expressing human NMUR2, 100% human plasma; read-out: EC50 (hNMUR2) human plasma
T2 sequence (Q9GZQ4 whole entry): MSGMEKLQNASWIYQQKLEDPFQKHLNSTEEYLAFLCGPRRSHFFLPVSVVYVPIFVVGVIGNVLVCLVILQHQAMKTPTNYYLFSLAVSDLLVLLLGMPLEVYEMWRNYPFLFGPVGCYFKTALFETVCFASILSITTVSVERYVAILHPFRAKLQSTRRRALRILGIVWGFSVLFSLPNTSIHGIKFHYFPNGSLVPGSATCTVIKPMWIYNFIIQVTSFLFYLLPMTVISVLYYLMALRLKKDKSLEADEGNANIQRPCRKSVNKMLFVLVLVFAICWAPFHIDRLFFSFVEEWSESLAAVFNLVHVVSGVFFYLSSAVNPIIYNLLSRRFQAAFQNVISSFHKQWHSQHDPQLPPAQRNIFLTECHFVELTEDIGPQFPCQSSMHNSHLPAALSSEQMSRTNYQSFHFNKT
Procedure, shortened: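 CHO-K1 cells stably expressing human NMUR2 exposed to peptide agonists (8-point dose-response) in 100% human plasma with 50 mM LiCl, 1% DMSO, for 1 h at 37° C. IP1 accumulation read by HTRF competition (665/620 nm ratio). EC50 from 4-parameter sigmoidal fit.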

human NMUR2 receptor [2] = target: T2, human NMUR2 receptor; test: IP1 Gq HTRF assay, activation of human NMUR2 in buffer; parameters: expressed in transfected cells; host or cells: CHO-K1; conditions: CHO-K1 cells expressing human NMUR2, stimulation buffer with 0.1% BSA; read-out: EC50 (hNMUR2) buffer
Procedure, shortened: as §1

Row | SMILES | EC50 (human NMUR1 receptor) [nM] | EC50 (human NMUR2 receptor [1]) [nM] | EC50 (human NMUR2 receptor [2]) [nM]
1 | CCCC[C@H](NC(=O)[C@H](CC(C)C)N(C)C(=O)[C@H](Cc1ccccc1)NC(=O)[C@H](Cc1ccc(O)cc1)NC(=O)CN1CCN(CCNC(=O)CN(C)C(=O)CN(C)C(=O)CN(C)C(=O)CN(C)C(=O)CN(C)C(=O)CN(C)C(=O)CN(C)C(=O)CN(C)C(=O)CN(C)C(=O)CN(C)C(=O)CN(C)C(=O)CN(C)C(=O)CC[C@H](NC(=O)CC[C@H](NC(=O)CC[C@H](NC(=O)CC[C@H](NC(=O)CCCCCCCCCCCCCCCCC(=O)O)C(=O)O)C(=O)O)C(=O)O)C(=O)O)CC1)C(=O)N[C@@H](CCN)C(=O)N1CCC[C@H]1C(=O)N[C@@H](CCCNC(=N)N)C(=O)NCC(N)=O [Compound 41, C18DA-gGlu4-Sar12-AEPipAc-Tyr-Phe-NMeLeu-Nle-Dbu-Pro-Arg-Gly-NH2] | 1300 | 12.2 | 2
2 | CCCC[C@H](NC(=O)[C@H](CC(C)C)N(C)C(=O)[C@H](Cc1ccccc1)NC(=O)[C@H](Cc1ccc(O)cc1)NC(=O)CN1CCN(CCNC(=O)CN(C)C(=O)CN(C)C(=O)CN(C)C(=O)CN(C)C(=O)CN(C)C(=O)CN(C)C(=O)CN(C)C(=O)CN(C)C(=O)CN(C)C(=O)CC[C@H](NC(=O)CC[C@H](NC(=O)CCCCCCCCCCCCCCCCC(=O)O)C(=O)O)C(=O)O)CC1)C(=O)N[C@@H](CCCN)C(=O)N(C)[C@@H](C)C(=O)N[C@@H](CCCNC(=N)N)C(=O)NCC(N)=O [Compound 44, C18DA-gGlu2-Sar9-AEPipAc-Tyr-Phe-NMeLeu-Nle-Orn-NMeAla-Arg-Gly-NH2] (HELM PEPTIDE1{[O=C(O)CCCCCCCCCCCCCCCCC(=O)[*:2]].[gGlu].[gGlu].[Sar].[Sar].[Sar].[Sar].[Sar].[Sar].[Sar].[Sar].[Sar].[O=C(CN1CCN(CCN[*:1])CC1)[*:2]].Y.F.[meL].[Nle].[Orn].[meA].R.G.[am]}$$$$V2.0) | > 1000 | 20.5 | 2.2
3 | CCCC[C@H](NC(=O)[C@H](CC(C)C)N(C)C(=O)[C@H](Cc1ccccc1)NC(=O)[C@H](Cc1ccc(O)cc1)NC(=O)CN1CCN(CCNC(=O)CN(C)C(=O)CN(C)C(=O)CN(C)C(=O)CN(C)C(=O)CN(C)C(=O)CN(C)C(=O)CN(C)C(=O)CN(C)C(=O)CN(C)C(=O)CN(C)C(=O)CN(C)C(=O)CN(C)C(=O)CN(C)C(=O)CN(C)C(=O)CN(C)C(=O)CC[C@H](NC(=O)CC[C@H](NC(=O)CC[C@H](NC(=O)CCCCCCCCCCCCCCCCC(=O)O)C(=O)O)C(=O)O)C(=O)O)CC1)C(=O)N[C@@H](Cc1ccncc1)C(=O)N1CCC[C@H]1C(=O)N[C@@H](CCCNC(=N)N)C(=O)NCC(N)=O [Compound 45, C18DA-gGlu3-Sar15-AEPipAc-Tyr-Phe-NMeLeu-Nle-4Pal-Pro-Arg-Gly-NH2] ({C18 diacid-γGlu-γGlu-γGlu}-[Sar][Sar][Sar][Sar][Sar][Sar][Sar][Sar][Sar][Sar][Sar][Sar][Sar][Sar][Sar][Pipz(1-CH2CO,4-CH2CH2NH)]YF[NMeL][Nle][4Pal]PRG-NH2) | > 1000 | 129 | 30
4 | CCCC[C@H](NC(=O)[C@H](CC(C)C)N(C)C(=O)[C@H](Cc1ccccc1)NC(=O)[C@H](Cc1ccc(O)cc1)NC(=O)CN1CCN(CCNC(=O)CN(C)C(=O)CN(C)C(=O)CN(C)C(=O)CN(C)C(=O)CN(C)C(=O)CN(C)C(=O)CN(C)C(=O)CN(C)C(=O)CN(C)C(=O)CN(C)C(=O)CN(C)C(=O)CN(C)C(=O)CN(C)C(=O)CN(C)C(=O)CN(C)C(=O)CC[C@H](NC(=O)CC[C@H](NC(=O)CC[C@H](NC(=O)CCCCCCCCCCCCCCCCC(=O)O)C(=O)O)C(=O)O)C(=O)O)CC1)C(=O)N[C@@H](CCCCN)C(=O)N1CCC[C@H]1C(=O)N[C@@H](CCCNC(=N)N)C(=O)NCC(N)=O [Compound 46, C18DA-gGlu3-Sar15-AEPipAc-Tyr-Phe-NMeLeu-Nle-Lys-Pro-Arg-Gly-NH2] (HELM PEPTIDE1{[O=C(O)CCCCCCCCCCCCCCCCC(=O)[*:2]].[gGlu].[gGlu].[gGlu].[Sar].[Sar].[Sar].[Sar].[Sar].[Sar].[Sar].[Sar].[Sar].[Sar].[Sar].[Sar].[Sar].[Sar].[Sar].[O=C(CN1CCN(CCN[*:1])CC1)[*:2]].Y.F.[meL].[Nle].K.P.R.G.[am]}$$$$V2.0) | > 1000 | 26.2 | 13
